{
  "source": "patent US20260284208A1",
  "about": "“SYSTEM” (Oxford University Innovation Limited, priority 2023, published 2026)",
  "test_system": "library of 8,380 IKZF3 degrons (ZF-eGFP/mCherry reporter) in Jurkat cells",
  "test": "Pooled library screen (FACS, NGS, limma voom LogFC of positive vs negative read counts)",
  "assay_type": "cell-based, human",
  "method_in_brief": "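Cells were lentivirally transduced at MOI <0.3, and mCherry+ cells were sorted 6 days later. Eight days after sorting, cells were treated with DMSO or thalidomide analog for 18 h at 37 °C. mCherry+GFPlow (DMSO-set gate, DAPI-excluded) and remaining cells were sorted, and degrons were PCR-amplified from gDNA and sequenced (>600× coverage, 3 biological replicates).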",
  "data": [
    {"smiles": "O=C1CCC(N2C(=O)c3ccc(N4CCOCC4)cc3C2=O)C(=O)N1", "note": "(centres unmarked) [B03]", "values": [
      {"measurement": "B03_logFC", "setting": "Degron-ID 115, SEQ ID NO 3968, 46F_47A_49E_50V_52G_53A_54S_55F_67L", "value": 2.732},
      {"measurement": "B03_logFC", "setting": "Degron-ID 120, SEQ ID NO 4031, 46F_47A_49N_50I_52G_53A_54A_55F_67L", "value": 2.638},
      {"measurement": "B03_logFC", "setting": "Degron-ID 315, SEQ ID NO 3989, 46F_47C_49E_50I_52G_53A_54S_55F_67L", "value": 2.703},
      {"measurement": "B03_logFC", "setting": "Degron-ID 372, SEQ ID NO 3966, 46F_47C_49N_50I_52G_53A_54P_55F_67L", "value": 2.733},
      {"measurement": "B03_logFC", "setting": "Degron-ID 433, SEQ ID NO 4021, 46F_47C_49P_50I_52G_53A_54Q_55F_67L", "value": 2.656},
      {"measurement": "B03_logFC", "setting": "Degron-ID 434, SEQ ID NO 3957, 46F_47C_49P_50I_52G_53A_54R_55F_67L", "value": 2.746},
      {"measurement": "B03_logFC", "setting": "Degron-ID 435, SEQ ID NO 3984, 46F_47C_49P_50I_52G_53A_54S_55F_67L", "value": 2.71},
      {"measurement": "B03_logFC", "setting": "Degron-ID 977, SEQ ID NO 4017, 46F_47F_49D_50I_52G_53A_54V_55F_67L", "value": 2.662},
      {"measurement": "B03_logFC", "setting": "Degron-ID 1011, SEQ ID NO 3988, 46F_47F_49D_50V_52G_53A_54N_55F_67L", "value": 2.704},
      {"measurement": "B03_logFC", "setting": "Degron-ID 1015, SEQ ID NO 3971, 46F_47F_49D_50V_52G_53A_54S_55F_67L", "value": 2.728},
      {"measurement": "B03_logFC", "setting": "Degron-ID 1065, SEQ ID NO 3981, 46F_47F_49E_50V_52G_53A_54G_55F_67L", "value": 2.716},
      {"measurement": "B03_logFC", "setting": "Degron-ID 1080, SEQ ID NO 4003, 46F_47F_49N_50I_52G_53A_54A_55F_67L", "value": 2.68},
      {"measurement": "B03_logFC", "setting": "Degron-ID 1081, SEQ ID NO 4001, 46F_47F_49N_50I_52G_53A_54C_55F_67L", "value": 2.686},
      {"measurement": "B03_logFC", "setting": "Degron-ID 1097, SEQ ID NO 3956, 46F_47F_49N_50I_52G_53A_54V_55F_67L", "value": 2.747},
      {"measurement": "B03_logFC", "setting": "Degron-ID 1183, SEQ ID NO 4013, 46F_47F_49P_50V_52G_53A_54E_55F_67L", "value": 2.668},
      {"measurement": "B03_logFC", "setting": "Degron-ID 1188, SEQ ID NO 4025, 46F_47F_49P_50V_52G_53A_54K_55F_67L", "value": 2.644},
      {"measurement": "B03_logFC", "setting": "Degron-ID 1197, SEQ ID NO 3982, 46F_47F_49P_50V_52G_53A_54V_55F_67L", "value": 2.716},
      {"measurement": "B03_logFC", "setting": "Degron-ID 1267, SEQ ID NO 3977, 46F_47G_49E_50I_52G_53A_54I_55F_67L", "value": 2.719},
      {"measurement": "B03_logFC", "setting": "Degron-ID 1273, SEQ ID NO 4024, 46F_47G_49E_50I_52G_53A_54Q_55F_67L", "value": 2.644},
      {"measurement": "B03_logFC", "setting": "Degron-ID 1314, SEQ ID NO 3964, 46F_47G_49E_50V_52G_53A_54R_55F_67L", "value": 2.737},
      {"measurement": "B03_logFC", "setting": "Degron-ID 1393, SEQ ID NO 4023, 46F_47G_49P_50I_52G_53A_54Q_55F_67L", "value": 2.648},
      {"measurement": "B03_logFC", "setting": "Degron-ID 1433, SEQ ID NO 4022, 46F_47G_49P_50V_52G_53A_54Q_55F_67L", "value": 2.653},
      {"measurement": "B03_logFC", "setting": "Degron-ID 1513, SEQ ID NO 4030, 46F_47H_49E_50I_52G_53A_54Q_55F_67L", "value": 2.639},
      {"measurement": "B03_logFC", "setting": "Degron-ID 1515, SEQ ID NO 4006, 46F_47H_49E_50I_52G_53A_54S_55F_67L", "value": 2.675},
      {"measurement": "B03_logFC", "setting": "Degron-ID 1555, SEQ ID NO 4029, 46F_47H_49E_50V_52G_53A_54S_55F_67L", "value": 2.639},
      {"measurement": "B03_logFC", "setting": "Degron-ID 1621, SEQ ID NO 4027, 46F_47H_49P_50I_52G_53A_54C_55F_67L", "value": 2.643},
      {"measurement": "B03_logFC", "setting": "Degron-ID 1751, SEQ ID NO 3952, 46F_47I_49E_50I_52G_53A_54N_55F_67L", "value": 2.753},
      {"measurement": "B03_logFC", "setting": "Degron-ID 1754, SEQ ID NO 4020, 46F_47I_49E_50I_52G_53A_54R_55F_67L", "value": 2.656},
      {"measurement": "B03_logFC", "setting": "Degron-ID 1755, SEQ ID NO 3970, 46F_47I_49E_50I_52G_53A_54S_55F_67L", "value": 2.728},
      {"measurement": "B03_logFC", "setting": "Degron-ID 1785, SEQ ID NO 4016, 46F_47I_49E_50V_52G_53A_54G_55F_67L", "value": 2.664},
      {"measurement": "B03_logFC", "setting": "Degron-ID 1865, SEQ ID NO 4014, 46F_47I_49P_50I_52G_53A_54G_55F_67L", "value": 2.667},
      {"measurement": "B03_logFC", "setting": "Degron-ID 1871, SEQ ID NO 3960, 46F_47I_49P_50I_52G_53A_54N_55F_67L", "value": 2.742},
      {"measurement": "B03_logFC", "setting": "Degron-ID 1913, SEQ ID NO 3962, 46F_47I_49P_50V_52G_53A_54Q_55F_67L", "value": 2.739},
      {"measurement": "B03_logFC", "setting": "Degron-ID 1915, SEQ ID NO 3965, 46F_47I_49P_50V_52G_53A_54S_55F_67L", "value": 2.736},
      {"measurement": "B03_logFC", "setting": "Degron-ID 2392, SEQ ID NO 4011, 46F_47L_49P_50V_52G_53A_54P_55F_67L", "value": 2.671},
      {"measurement": "B03_logFC", "setting": "Degron-ID 2957, SEQ ID NO 3986, 46F_47Q_49E_50I_52G_53A_54V_55F_67L", "value": 2.708},
      {"measurement": "B03_logFC", "setting": "Degron-ID 2981, SEQ ID NO 4000, 46F_47Q_49E_50V_52G_53A_54C_55F_67L", "value": 2.687},
      {"measurement": "B03_logFC", "setting": "Degron-ID 2996, SEQ ID NO 4026, 46F_47Q_49E_50V_52G_53A_54T_55F_67L", "value": 2.643},
      {"measurement": "B03_logFC", "setting": "Degron-ID 2997, SEQ ID NO 3951, 46F_47Q_49E_50V_52G_53A_54V_55F_67L", "value": 2.756},
      {"measurement": "B03_logFC", "setting": "Degron-ID 3073, SEQ ID NO 3979, 46F_47Q_49P_50I_52G_53A_54Q_55F_67L", "value": 2.718},
      {"measurement": "B03_logFC", "setting": "Degron-ID 3076, SEQ ID NO 3959, 46F_47Q_49P_50I_52G_53A_54T_55F_67L", "value": 2.742},
      {"measurement": "B03_logFC", "setting": "Degron-ID 3115, SEQ ID NO 3978, 46F_47Q_49P_50V_52G_53A_54S_55F_67L", "value": 2.718},
      {"measurement": "B03_logFC", "setting": "Degron-ID 3432, SEQ ID NO 3998, 46F_47S_49E_50I_52G_53A_54P_55F_67L", "value": 2.688},
      {"measurement": "B03_logFC", "setting": "Degron-ID 3540, SEQ ID NO 3999, 46F_47S_49P_50I_52G_53A_54A_55F_67L", "value": 2.688},
      {"measurement": "B03_logFC", "setting": "Degron-ID 3791, SEQ ID NO 4035, 46F_47T_49P_50I_52G_53A_54N_55F_67L", "value": 2.632},
      {"measurement": "B03_logFC", "setting": "Degron-ID 3833, SEQ ID NO 4034, 46F_47T_49P_50V_52G_53A_54Q_55F_67L", "value": 2.635},
      {"measurement": "B03_logFC", "setting": "Degron-ID 3835, SEQ ID NO 3974, 46F_47T_49P_50V_52G_53A_54S_55F_67L", "value": 2.722},
      {"measurement": "B03_logFC", "setting": "Degron-ID 3953, SEQ ID NO 3961, 46F_47V_49E_50V_52G_53A_54Q_55F_67L", "value": 2.742},
      {"measurement": "B03_logFC", "setting": "Degron-ID 4065, SEQ ID NO 4015, 46F_47V_49P_50V_52G_53A_54G_55F_67L", "value": 2.665},
      {"measurement": "B03_logFC", "setting": "Degron-ID 4087, SEQ ID NO 3963, 46F_47W_49D_50I_52G_53A_54I_55F_67L", "value": 2.738}
    ]}
  ]
}
